Measurements reported in patent US20130267532A1, “CYCLIC AMIDE COMPOUNDS AND THEIR USE IN THE TREATMENT OF DISEASE” (priority 2010, published 2013).

These molecules were tested against T1, full-length human TLR8 (Homo sapiens, UniProt Q9NR97) (assay: Human TLR8 assay (TLR8/NF-κB/SEAPorter HEK 293 cell line)). Settings: TLR8 activation, SEAP induction, HEK 293 reporter cells, overnight incubation at 37° C., 0.1% DMSO.
T1 construct: a stably co-transfected cell line which expresses full-length human TLR8; host or cells: TLR8/NF-κB/SEAPorter HEK 293 Cell Line
T1 sequence (Q9NR97 27-1041): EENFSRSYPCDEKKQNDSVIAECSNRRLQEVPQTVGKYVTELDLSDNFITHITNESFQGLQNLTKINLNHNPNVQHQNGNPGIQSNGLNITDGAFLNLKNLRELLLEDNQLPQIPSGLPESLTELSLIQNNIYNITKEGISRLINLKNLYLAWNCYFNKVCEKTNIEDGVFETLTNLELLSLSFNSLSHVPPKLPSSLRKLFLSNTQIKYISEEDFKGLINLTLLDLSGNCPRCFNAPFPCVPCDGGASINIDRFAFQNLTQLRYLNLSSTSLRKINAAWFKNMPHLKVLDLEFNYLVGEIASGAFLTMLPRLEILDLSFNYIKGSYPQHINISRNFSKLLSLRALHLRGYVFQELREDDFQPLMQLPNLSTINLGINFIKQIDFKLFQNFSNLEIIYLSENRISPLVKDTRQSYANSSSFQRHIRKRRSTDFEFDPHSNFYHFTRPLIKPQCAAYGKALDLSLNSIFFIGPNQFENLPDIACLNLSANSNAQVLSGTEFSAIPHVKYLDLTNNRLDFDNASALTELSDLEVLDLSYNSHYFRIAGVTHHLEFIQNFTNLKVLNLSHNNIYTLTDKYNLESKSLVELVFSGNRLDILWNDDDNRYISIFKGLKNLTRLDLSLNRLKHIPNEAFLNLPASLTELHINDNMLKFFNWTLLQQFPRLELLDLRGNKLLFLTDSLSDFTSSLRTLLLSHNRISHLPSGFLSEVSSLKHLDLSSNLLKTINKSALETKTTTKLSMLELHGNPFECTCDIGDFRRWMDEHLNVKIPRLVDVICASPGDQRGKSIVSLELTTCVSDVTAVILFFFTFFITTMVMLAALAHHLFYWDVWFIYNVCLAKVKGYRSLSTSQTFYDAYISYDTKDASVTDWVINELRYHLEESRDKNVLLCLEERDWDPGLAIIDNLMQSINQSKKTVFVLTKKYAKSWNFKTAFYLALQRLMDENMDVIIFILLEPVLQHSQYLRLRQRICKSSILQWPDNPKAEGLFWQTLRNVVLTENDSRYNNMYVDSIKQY
Assay type: cell-based
Excerpt: TLR8/NF-κB/SEAPorter™ HEK 293 Cell Line (Imgenex Corporation) is a stably co-transfected cell line which expresses full-length human TLR8 and the secreted alkaline phosphatase (SEAP) reporter gene under the transcriptional control of an NF-κB response element. TLR8 expression in this cell line has been tested by flow cytometry. Transfectants with stable expression were selected using the antibiotic blasticidin and geneticin. TLR signaling leads to the translocation of NF-κB and activation of the promoter results in expression of the SEAP gene. TLR8-specific activation was assessed by determining the level of SEAP produced following overnight incubation of the cells at 37° C. with the standard compound in the presence of 0.1% (v/v) dimethylsulfoxide (DMSO). Concentration dependent induction of SEAP production by compounds was expressed as the concentration of compound which produced half of the maximal level of SEAP induction for that compound (EC50).

SMILES	EC50
CCCCCNc1nc(N)nc(C)c1Cc1ccc(N2CCN(C)CC2=O)cc1OC [Example 2, 1-(4-{[2-Amino-4-methyl-6-(pentylamino)pyrimidin-5-yl]methyl}-3-methoxyphenyl)-4-methylpiperazin-2-one]	> 10 µM
CCC[C@@H](CCO)Nc1nc(N)nc(C)c1Cc1ccc(N2CCNCC2=O)cc1OC [Example 5, (S)-1-(4-{[2-Amino-4-(1-hydroxyhexan-3-ylamino)-6-methylpyrimidin-5-yl]methyl}-3-methoxyphenyl)piperazin-2-one]	> 10 µM

Second part, the molecule after the results:

EC50	SMILES
> 10 µM	CCCCNc1nc(N)nc(C)c1Cc1ccc(N2CCN(C)CC2=O)cc1OC [Example 1, 1-(4-{[2-Amino-4-(butylamino)-6-methylpyrimidin-5-yl]methyl}-3-methoxyphenyl)-4-methylpiperazin-2-one]
6.31 µM	CCC[C@@H](CCO)Nc1nc(N)nc(C)c1Cc1ccc(N2CCN(C)CC2=O)cc1OC [Example 3, (S)-1-(4-{[2-Amino-4-(1-hydroxyhexan-3-ylamino)-6-methylpyrimidin-5-yl]methyl}-3-methoxyphenyl)-4-methylpiperazin-2-one]
5.01 µM	CCC[C@@H](CO)Nc1nc(N)nc(C)c1Cc1ccc(N2CCN(C)CC2=O)cc1OC [Example 4, (S)-1-(4-{[2-Amino-4-(1-hydroxypentan-2-ylamino)-6-methylpyrimidin-5-yl]methyl}-3-methoxyphenyl)-4-methylpiperazin-2-one]
